Results from patent US20190142974A1, “METHODS AND COMPOSITIONS FOR ATTENUATING ANTI-VIRAL TRANSFER VECTOR IGM RESPONSES” (Selecta Biosciences, Inc., priority 2017, published 2019).

Test system: AAV
Assay: Serum AAV IgG, ELISA
Format: in vivo, C57BL/6 female mice
Settings: Example 12, FIG. 24B
Experimental: Same serum samples from Example 3 were also tested for AAV IgG measured by ELISA along the same lines as IgM with the exception of goat anti-mouse IgG specific-HRP being used.

## C=CC(=O)N1CCC[C@@H](n2nc(-c3ccc(Oc4ccccc4)cc3)c3c(N)ncnc32)C1 [ibrutinib]
  animals converting to AAV IgG-positive by d22: 10/10
